Measurements reported in publication PMC6362252, “A cell-free platform for the prenylation of natural products and application to cannabinoid production” (Nature Communications, 2019).

How the values were obtained:
NphB = NphB (Streptomyces sp. CL190, UniProt Q4R2T2, A232S/Y288A); settings: M30; otherwise same
[1] = target: T1, cannabidiolic acid synthase (CBDAS); CBDA synthase (Cannabis sativa, UniProt A6P6V9); assay: HPLC of product CBDA; assay type: biochemical; settings: concentrated expression medium, 25 µM FAD, 5 mM MgCl2, 5 mM KCl, 50 mM Hepes pH 7.0, 30 °C, nonane overlay
T1 construct: native signal peptide removed, starts at residue 28 (NPREN...), pPICZalpha, secreted by Pichia pastoris X33, concentrated culture medium (not purified)

Row | SMILES | Km (NphB) | HPLC of product CBDA [1]
1 | CCCCCc1cc(O)cc(O)c1C(=O)O [olivetolic acid] | 200 ± 40 µM | –
2 | CCCCCc1cc(O)c(C/C=C(\C)CCC=C(C)C)c(O)c1C(=O)O [cannabigerolic acid] | – | we employed CBDA synthase to convert CBGA into CBDA and CBGVA into CBDVA
